Each structure is given as a SMILES string.

The target in the first experiment is T1, Thromboxane-A synthase (Homo sapiens, UniProt P24557).
T1 sequence (P24557 whole entry): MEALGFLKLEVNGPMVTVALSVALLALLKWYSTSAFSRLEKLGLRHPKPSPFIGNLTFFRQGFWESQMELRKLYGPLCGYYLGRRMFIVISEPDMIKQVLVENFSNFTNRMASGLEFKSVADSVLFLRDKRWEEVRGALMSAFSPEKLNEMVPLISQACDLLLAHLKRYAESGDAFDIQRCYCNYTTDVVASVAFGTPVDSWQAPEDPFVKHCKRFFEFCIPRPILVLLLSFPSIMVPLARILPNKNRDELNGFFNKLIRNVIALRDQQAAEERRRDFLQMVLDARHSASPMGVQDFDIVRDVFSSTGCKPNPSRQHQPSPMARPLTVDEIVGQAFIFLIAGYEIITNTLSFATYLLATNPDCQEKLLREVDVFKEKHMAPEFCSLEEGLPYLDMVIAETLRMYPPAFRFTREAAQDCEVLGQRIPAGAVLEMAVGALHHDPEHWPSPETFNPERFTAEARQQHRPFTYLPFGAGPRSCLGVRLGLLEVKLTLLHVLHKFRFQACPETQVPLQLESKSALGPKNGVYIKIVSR
The experiment can be described thus: In vitro inhibition of thromboxane synthase.
Regarding `O=C(O)CC/C=C\CC[C@@H]1[C@@H](c2cccnc2)[S@@+]([O-])C[C@H]1OCc1ccc(-c2ccccc2)cc1`, the IC50 was > 0.2 µM.
The same measure, in the same setting: as for `O=C(O)CC/C=C\CC[C@@H]1[C@@H](c2cccnc2)[S@+]([O-])C[C@H]1OCc1ccc(-c2ccccc2)cc1`, the figure is > 0.2 µM; as for `O=C(O)CC/C=C\CC[C@H]1[C@@H](OCc2ccc(-c3ccccc3)cc2)CS(=O)(=O)[C@@H]1c1cccnc1`, > 0.2 µM.
Still for that read-out and setting: in the case of `O=C(O)CC/C=C\CC[C@H]1[C@@H](OCc2ccc(-c3ccccc3)cc2)CS[C@@H]1c1cccnc1` it was 0.011 µM; in that of `O=C(O)CC/C=C\CC[C@H]1[C@@H](OCc2ccc(-c3ccccc3)cc2)C[S+]([O-])[C@@H]1c1cccnc1` (some centres not stated), > 0.1 µM.
Still for that read-out and setting: in the case of `O=C(O)CC/C=C\CC[C@@H]1[C@@H](c2cccnc2)S(=O)(=O)C[C@H]1OCc1ccc(-c2ccccc2)cc1` it was > 0.2 µM.
As to `O=C(O)CCC/C=C\C[C@@H]1[C@@H](c2cccnc2)SC[C@H]1OCc1ccc(-c2ccccc2)cc1`, inhibition was half-maximal at 0.043 µM (IC50).
Still for that read-out and setting: as for `O=C(O)CC/C=C\CC[C@@H]1[C@@H](c2cccnc2)SC[C@H]1OCc1ccc(-c2ccccc2)cc1` (stereo in doubt; 1), the figure is 0.01 µM; as for `O=C(O)CC/C=C\CC[C@@H]1[C@@H](c2cccnc2)SC[C@H]1OCc1ccc(-c2ccccc2)cc1` (stereo in doubt; (+)), 0.018 µM; as for `O=C(O)CC/C=C\CC[C@@H]1[C@@H](c2cccnc2)SC[C@H]1OCc1ccc(-c2ccccc2)cc1` (stereo in doubt; (-)), 0.013 µM.
`O=C(O)CCCCCc1cccc2cncn12` [PIRMAGREL] registered an IC50 of 0.003 µM.

Another experiment has as its target T2, Thromboxane A2 receptor (Homo sapiens, UniProt P21731).
T2 sequence (P21731 whole entry): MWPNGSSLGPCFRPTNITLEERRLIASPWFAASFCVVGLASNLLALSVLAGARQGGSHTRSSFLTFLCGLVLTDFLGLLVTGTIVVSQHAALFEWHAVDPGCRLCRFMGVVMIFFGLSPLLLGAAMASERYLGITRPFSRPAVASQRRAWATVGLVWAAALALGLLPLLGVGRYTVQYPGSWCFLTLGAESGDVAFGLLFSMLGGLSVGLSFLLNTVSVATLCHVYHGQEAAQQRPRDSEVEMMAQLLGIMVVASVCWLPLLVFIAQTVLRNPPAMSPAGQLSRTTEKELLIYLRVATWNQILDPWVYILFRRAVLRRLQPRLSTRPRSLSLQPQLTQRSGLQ
Put plainly: In vitro thromboxane receptor antagonist activity was determined by inhibition of U-46619 induced aggregation of washed human platelets. The experiment is classed as functional.
On to `O=C(O)CCCCCc1cccc2cncn12` [PIRMAGREL], for which the 50% inhibitory concentration (IC50) entry is given as “Not Active”.
